Test system in one data set: not listed separately
As to the kind of experiment: Intrinsic cytotoxicity against human MT4 cells after 5 days by Cell Titre Glo assay. It counts as cell-based.
Conditions: not given
`CC(C)(C)C#Cc1cc(N(C(=O)[C@H]2CC[C@H](C)CC2)[C@H]2CC[C@@H](Oc3ccc(O)nn3)CC2)c(C(=O)O)s1`: half-maximal cytotoxicity (CC50 at 120 h) was put at 2170 nM.

Test system in the next data set: not listed separately
Kind of data set: Lipophilicity, log D of the compound by chromatography. It counts as physicochemical.
Conditions: not given
`CC(C)(C)C#Cc1cc(N(C(=O)[C@H]2CC[C@H](C)CC2)[C@H]2CC[C@@H](Oc3ccc(O)nn3)CC2)c(C(=O)O)s1` returned a chromatographic logD of 1.8.

In the next data set the test system is Hepatitis C virus. As to the kind of experiment: Antiviral activity against Hepatitis C virus H77 genotype 1a infected in human HuH7 cells assessed as plasma adjusted antiviral potency after 72 hrs by luciferase reporter gene assay. It counts as functional, organism-based, Hepacivirus hominis. The following applies: genotype 1a H77, Huh-7, Plasma.
On to `CC(C)(C)C#Cc1cc(N(C(=O)[C@H]2CC[C@H](C)CC2)[C@H]2CC[C@@H](Oc3ccc(O)nn3)CC2)c(C(=O)O)s1`, for which the EC50 came out at 277 nM.

Test system in the next data set: not listed separately
Kind of data set: Mean residence time in Sprague-Dawley rat at 0.5 mg/kg, iv. The arrangement: dose 0.5 mg/kg, route intravenous. It counts as ADME, organism-based. The settings on record: in vivo.
For the compound `CC(C)(C)C#Cc1cc(N(C(=O)[C@H]2CC[C@H](C)CC2)[C@H]2CC[C@@H](Oc3ccc(O)nn3)CC2)c(C(=O)O)s1`, the MRT was found to be 30 min.

Test system in a further data set: not listed separately
As to the kind of experiment: Cytotoxicity against human HuH7 cells after 3 days by Cell Titre Glo assay. It counts as cell-based, Huh-7.
Conditions: not given
Turning to `C[C@@H](CCO)N(c1cc(C#CC(C)(C)C)sc1C(=O)O)C(=O)[C@H]1CC[C@H](C)CC1`, the CC50 at 72 h was at least 20 µM.

`CC(C)(C)C#Cc1cc(N(CCO)C(=O)[C@H]2CC[C@H](C)CC2)c(C(=O)O)s1` showed a CC50 at 72 h of at least 20 µM.

`CC(C)N(c1cc(-c2ccccc2)sc1C(=O)O)C(=O)[C@H]1CC[C@H](C)CC1`: the half-maximal cytotoxic concentration (CC50) at 72 h is at least 20 µM.

`CC(C)(C)C#Cc1cc(N(C(=O)[C@H]2CC[C@H](C)CC2)[C@H]2CC[C@H](O)CC2)c(C(=O)O)s1` [LOMIBUVIR]: the CC50 at 72 h was at least 20 µM.

In a further data set the test system is Hepatitis C virus. Kind of data set: Antiviral activity against Hepatitis C virus H77 genotype 1a infected in human HuH7 cells assessed as intrinsic antiviral potency after 72 hrs by luciferase reporter gene assay. It counts as functional, organism-based, Hepacivirus hominis. The following applies: genotype 1a H77, Huh-7, 72 h.
Regarding `C[C@@H](CCO)N(c1cc(C#CC(C)(C)C)sc1C(=O)O)C(=O)[C@H]1CC[C@H](C)CC1`, the EC50 was found to be 3.3 nM.

Turning to `CC(C)(C)C#Cc1cc(N(C(=O)[C@H]2CC[C@H](C)CC2)[C@H]2CC[C@H](Oc3cccnc3)CC2)c(C(=O)O)s1`, the EC50 turned out to be 3.6 nM.

As for `CC(C)(C)C#Cc1cc(N(C(=O)[C@H]2CC[C@H](C)CC2)[C@H]2CC[C@@H](Oc3ccc(O)nn3)CC2)c(C(=O)O)s1`, the concentration giving a half-maximal response (EC50) came to 2.6 nM.

`CC(C)(C)C#Cc1cc(N(C(=O)[C@H]2CC[C@H](C)CC2)[C@H]2CC[C@H](Oc3nccs3)CC2)c(C(=O)O)s1`: the EC50 is 1.5 nM.

Turning to `CC(C)N(c1cc(-c2ccccc2)sc1C(=O)O)C(=O)[C@H]1CC[C@H](C)CC1`, the EC50 stood at 170 nM.

`CC(C)(C)C#Cc1cc(N(C(=O)[C@H]2CC[C@H](C)CC2)[C@H]2CC[C@H](O)CC2)c(C(=O)O)s1` [LOMIBUVIR]: the EC50 was 2.8 nM.

For another data set, the system named is Hepatitis C virus. As to the kind of experiment: Antiviral activity against Hepatitis C virus H77 genotype 1a infected in human HuH7 cells assessed as observed antiviral potency after 72 hrs by luciferase reporter gene assay. It counts as functional, organism-based, Hepacivirus hominis. The settings on record: genotype 1a H77, Huh-7, 72 h.
In the case of `C[C@@H](CCO)N(c1cc(C#CC(C)(C)C)sc1C(=O)O)C(=O)[C@H]1CC[C@H](C)CC1`, the EC50 turned out to be 15 nM.

For the compound `CC(C)(C)C#Cc1cc(N(CCO)C(=O)[C@H]2CC[C@H](C)CC2)c(C(=O)O)s1`, the EC50 amounted to 304 nM.

Take `CC(C)(C)C#Cc1cc(N(C(=O)[C@H]2CC[C@H](C)CC2)[C@H]2CC[C@H](Oc3cccnc3)CC2)c(C(=O)O)s1`: the EC50 was 128 nM.

Take `CC(C)(C)C#Cc1cc(N(C(=O)[C@H]2CC[C@H](C)CC2)[C@H]2CC[C@@H](Oc3ccc(O)nn3)CC2)c(C(=O)O)s1`: the EC50 is 24 nM.

With `CC(C)(C)C#Cc1cc(N(C(=O)[C@H]2CC[C@H](C)CC2)[C@H]2CC[C@H](Oc3nccs3)CC2)c(C(=O)O)s1`, the EC50 stood at 84 nM.

Turning to `CC(C)N(c1cc(-c2ccccc2)sc1C(=O)O)C(=O)[C@H]1CC[C@H](C)CC1`, the EC50 came to 2100 nM.

Take `CC(C)(C)C#Cc1cc(N(C(=O)[C@H]2CC[C@H](C)CC2)[C@H]2CC[C@H](O)CC2)c(C(=O)O)s1` [LOMIBUVIR]: the EC50 is 13 nM.

The subject of the next data set is Hepatitis C virus. As to the kind of experiment: Antiviral activity against Hepatitis C virus Con1 genotype 1b infected in human HuH7 cells after 72 hrs by luciferase reporter gene assay. The settings on record: isolate Con1, Huh-7, 72 h. It counts as functional, organism-based, Hepacivirus hominis.
Turning to `C[C@@H](CCO)N(c1cc(C#CC(C)(C)C)sc1C(=O)O)C(=O)[C@H]1CC[C@H](C)CC1`, the EC50 is 7 nM.

Regarding `CC(C)(C)C#Cc1cc(N(CCO)C(=O)[C@H]2CC[C@H](C)CC2)c(C(=O)O)s1`, the EC50 was 78 nM.

`CC(C)N(c1cc(-c2ccccc2)sc1C(=O)O)C(=O)[C@H]1CC[C@H](C)CC1` had an EC50 of 593 nM.

`CC(C)(C)C#Cc1cc(N(C(=O)[C@H]2CC[C@H](C)CC2)[C@H]2CC[C@H](O)CC2)c(C(=O)O)s1` [LOMIBUVIR]: the EC50 is 6 nM.

Test system in a further data set: not listed separately
As to the kind of experiment: Fraction unbound in cell culture medium at 2 uM at pH 7.4 by equilibrium dialysis method.
Conditions: not given
It counts as ADME.
For `C[C@@H](CCO)N(c1cc(C#CC(C)(C)C)sc1C(=O)O)C(=O)[C@H]1CC[C@H](C)CC1`, the fraction unbound at 2 µM came to 0.22.

With `CC(C)(C)C#Cc1cc(N(C(=O)[C@H]2CC[C@H](C)CC2)[C@H]2CC[C@H](Oc3cccnc3)CC2)c(C(=O)O)s1`, the free fraction (fraction unbound) at 2 µM worked out at 0.03.

On to `CC(C)N(c1cc(-c2ccccc2)sc1C(=O)O)C(=O)[C@H]1CC[C@H](C)CC1`, for which the fraction unbound at 2 µM was found to be 0.08.

In turn, `CC(C)(C)C#Cc1cc(N(C(=O)[C@H]2CC[C@H](C)CC2)[C@H]2CC[C@H](O)CC2)c(C(=O)O)s1` [LOMIBUVIR] came in with a fraction unbound at 2 µM of 0.19.

Test system in another data set: not listed separately
Kind of data set: Cytotoxicity against human MT4 cells after 5 days by Cell Titre Glo assay. It counts as cell-based.
Conditions: not given
`C[C@@H](CCO)N(c1cc(C#CC(C)(C)C)sc1C(=O)O)C(=O)[C@H]1CC[C@H](C)CC1` showed a CC50 at 120 h above 20 µM.

`CC(C)(C)C#Cc1cc(N(CCO)C(=O)[C@H]2CC[C@H](C)CC2)c(C(=O)O)s1` had a CC50 at 120 h above 20 µM.

Compound `CC(C)(C)C#Cc1cc(N(C(=O)[C@H]2CC[C@H](C)CC2)[C@H]2CC[C@H](Oc3cccnc3)CC2)c(C(=O)O)s1` registered a CC50 at 120 h above 20 µM.

With `CC(C)(C)C#Cc1cc(N(C(=O)[C@H]2CC[C@H](C)CC2)[C@H]2CC[C@@H](Oc3ccc(O)nn3)CC2)c(C(=O)O)s1`, the CC50 at 120 h was above 20 µM.

`CC(C)(C)C#Cc1cc(N(C(=O)[C@H]2CC[C@H](C)CC2)[C@H]2CC[C@H](Oc3nccs3)CC2)c(C(=O)O)s1` gave a CC50 at 120 h above 20 µM.

`CC(C)N(c1cc(-c2ccccc2)sc1C(=O)O)C(=O)[C@H]1CC[C@H](C)CC1` displayed a CC50 at 120 h above 20 µM.

As for `CC(C)(C)C#Cc1cc(N(C(=O)[C@H]2CC[C@H](C)CC2)[C@H]2CC[C@H](O)CC2)c(C(=O)O)s1` [LOMIBUVIR], the CC50 at 120 h was above 20 µM.

A further data set deals with Hepatitis C virus. As to the kind of experiment: Antiviral activity against HCV genotype 1b infected in human patient assessed as log10 reduction in viral RNA in plasma at 750 mg/kg, bid after 3 days. It counts as functional, Hepacivirus hominis.
Conditions: not given
Consider `CC(C)(C)C#Cc1cc(N(C(=O)[C@H]2CC[C@H](C)CC2)[C@H]2CC[C@H](O)CC2)c(C(=O)O)s1` [LOMIBUVIR], for which the FC is 3.7.

The next data set has as its system Hepatitis C virus. As to the kind of experiment: Antiviral activity against HCV genotype 1 infected in human patient assessed as log10 reduction in viral RNA in plasma at 700 mg/kg, bid after 8 days. It counts as functional, Hepacivirus hominis.
Conditions: not given
On to `CCc1cc(CC[C@]2(C3CCCC3)CC(O)=C(Cc3nc4nc(C)cc(C)n4n3)C(=O)O2)cc(CC)n1` [FILIBUVIR], for which the FC was found to be 2.3.

Test system in the next data set: not listed separately
As to the kind of experiment: Mean residence time in Sprague-Dawley rat at 1 mg/kg, iv. Details: dose 1 mg/kg, route intravenous. The settings on record: in vivo. It counts as ADME, organism-based.
On to `CC(C)(C)C#Cc1cc(N(C(=O)[C@H]2CC[C@H](C)CC2)[C@H]2CC[C@H](Oc3cccnc3)CC2)c(C(=O)O)s1`, for which the MRT stood at 3.4 h.

Take `CC(C)(C)C#Cc1cc(N(C(=O)[C@H]2CC[C@H](C)CC2)[C@H]2CC[C@H](Oc3nccs3)CC2)c(C(=O)O)s1`: the MRT was 2.8 h.

(Values after ChEMBL document CHEMBL3120092, “Discovery of GS-9669, a thumb site II non-nucleoside inhibitor of NS5B for the treatment of genotype 1 chronic hepatitis C infection” (J Med Chem, 2014).)
